Assay results published in patent publication US6967215B2, “Tetrahydrocarbazoles, a process for the preparation of those compounds, and the use thereof” (Ciba Specialty Chemicals Corporation, priority 2000, dated 2005).

Legend:
Test in all cases: MIC, microtitre dilution test (growth by optical density at 620 nm)
Conditions in all cases: Table 4
[1] = system: Trichoderma longibrachiatum DSM 768; assay type: cell-based
Procedure: (§1) Nutrient: Mycological slant agar for the pre-culture of moulds [table] The test substances are predissolved in dimethyl sulfoxide (DMSO) and tested in a dilution series of 1:2. Bacteria and yeast are cultured overnight in CASO bouillon, the mould is cultured overnight on mycological slant agar, and washed off with 10 ml of 0.85% sodium chloride solution (+0.1% TritonX-100). All the test organisms are adjusted to an organism count of 1-5×10^6 CFU/ml using 0.85% sodium chloride solution. The test substances are pre-pipetted into microtitre plates in an amount of 8 μl per well. Pre-diluted organism suspensions are diluted 1:100 in CASO bouillon (bacteria and yeast) or Sabouraud 2% glucose bouillon (mould) and are added in an amount of 192 μl per well to the test substances. The test batches are incubated for 48 hours at 37° C. (bacteria and yeast) or for 5 days at 28° C. (mould). After incubation, the growth is evaluated by reference to the turbidity of the test batches (optical density) at 620 nm in a microplate reader. The minimum inhibitory concentration (MIC value) is the concentration of substance at which (compared with the growth of the control) an appreciable inhibition of growth (≦20% growth) of the test organisms is ascertained. One microtitre plate is used for each test organism and substance concentration. All the substances are tested in duplicate.

[2] = system: Trichophyton rubrum DSM 4167; assay type: cell-based
Procedure: as §1

[3] = system: Epidermophyton floccosum DSM 10709; assay type: cell-based
Procedure: as §1

[4] = system: Tr. mentagrophytes ATCC 9533; assay type: cell-based
Procedure: as §1

[5] = system: Aspergillus niger ATCC 6175; assay type: cell-based
Procedure: as §1

[6] = system: Staphylococus aureus ATCC 9144; assay type: cell-based, Staphylococcus aureus
Procedure: as §1, with “All” for “Nutrient: Mycological slant agar for the pre-culture of moulds [table] The test substances are predissolved in dimethyl sulfoxide (DMSO) and tested in a dilution series of 1:2. Bacteria and yeast are cultured overnight in CASO bouillon, the mould is cultured overnight on mycological slant agar, and washed off with 10 ml of 0.85% sodium chloride solution (+0.1% TritonX-100). All”

[7] = system: Streptococcus sobrinus DSM 20742; assay type: cell-based
Procedure, shortened: (§2)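 Compounds in DMSO, 1:2 dilution series, against bacteria adjusted to 1-5×10^6 CFU/ml then diluted 1:100 in CASO bouillon; 48 h at 37° C. Growth read as turbidity at 620 nm. MIC is the concentration giving ≦20% growth versus control; duplicate testing.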

[8] = system: Actinomyces viscosus DSM 43329; assay type: cell-based
Procedure, shortened: as §2

[9] = system: Selenomonas artemidis ATCC 43528; assay type: cell-based
Procedure, shortened: as §2

[10] = system: Enterococcus hirae ATCC 10541; assay type: cell-based
Procedure, shortened: as §2

[11] = system: Micrococcus luteus ATCC 9341; assay type: cell-based
Procedure, shortened: as §2

[12] = system: P. ovale ATCC 14521; assay type: cell-based
[13] = system: Staphylococcus aureus (penicillin-resistant) NCTC 10443; assay type: cell-based
Procedure, shortened: as §2

[14] = system: Staphylococcus aureus (methicillin-resistant) NCTC 11940; assay type: cell-based
Procedure, shortened: as §2

[15] = system: Staphylococcus epidermidis ATCC 12228; assay type: cell-based
Procedure, shortened: as §2

[16] = system: Corynebacterium xerosis ATCC 373; assay type: cell-based
Procedure, shortened: as §2

[17] = system: Candida albicans ATCC 10259; assay type: cell-based
[18] = system: Porphyromonas gingivalis DSM 20709; assay type: cell-based
Procedure, shortened: as §2

[19] = system: Staphylococcus aureus (methicillin-resistant) NCTC 12493; assay type: cell-based
Procedure, shortened: as §2

[20] = system: Staphylococcus aureus (rifampicin-resistant) NCTC 10703; assay type: cell-based
Procedure, shortened: as §2

[21] = system: Staphylococcus hominis DMS 20328; assay type: cell-based
Procedure, shortened: as §2

[22] = system: Propionibacterium acnes ATCC 25746; assay type: cell-based
Procedure, shortened: as §2

[23] = system: Streptococcus mutans ATCC 25175; assay type: cell-based
Procedure, shortened: as §2

## O=C1NC(=O)C2C1c1[nH]c3ccc(Br)cc3c1C1CCCCCC12 (centres unmarked) [compound 32]
[1]
  MIC Trichoderma longibrachiatum DSM 768: >10 ppm
[2]
  MIC Trichophyton rubrum DSM 4167: 10 ppm
[3]
  MIC Epidermophyton floccosum DSM 10709: 5.0 ppm
[4]
  MIC Tr. mentagrophytes ATCC 9533: 10 ppm
[5]
  MIC Aspergillus niger ATCC 6175: >10 ppm
[6]
  MIC Staphylococus aureus ATCC 9144: 5.0 ppm
[7]
  MIC Streptococcus sobrinus DSM 20742: 6.25 ppm
[8]
  MIC Actinomyces viscosus DSM 43329: 6.25 ppm
[9]
  MIC Selenomonas artemidis ATCC 43528: 50.0 ppm
[10]
  MIC Enterococcus hirae ATCC 10541: >10 ppm
[11]
  MIC Micrococcus luteus ATCC 9341: 5.0 ppm
[12]
  MIC P. ovale ATCC 14521: >10 ppm
[13]
  MIC Staphylococcus aureus (penicillin-resistant) NCTC 10443: 5.0 ppm
[14]
  MIC Staphylococcus aureus (methicillin-resistant) NCTC 11940: 5.0 ppm
[15]
  MIC S. epidermidis ATCC 12228: 10 ppm
[16]
  MIC Corynebacterium xerosis ATCC 373: 5.0 ppm
[17]
  MIC Candida albicans ATCC 10259: >10 ppm
[18]
  MIC Porphyromonas gingivalis DSM 20709: 3.125 ppm
[19]
  MIC Staphylococcus aureus (methicillin-resistant) NCTC 12493: 5.0 ppm
[20]
  MIC Staphylococcus aureus (rifampicin-resistant) NCTC 10703: 5.0 ppm
[21]
  MIC Staphylococcus hominis DSM 20328: 5.0 ppm
[22]
  MIC Propionibacterium acnes ATCC 25746: 6.25 ppm
[23]
  MIC Streptococcus mutans ATCC 25175: 5.0 ppm
